Molecules are shown by their SMILES. Some results are limits rather than exact numbers.

The term melting point denotes the temperature of the solid-liquid transition. The molecule `O=[N+]([O-])c1ccc(S(=O)(=O)CCO)cc1` yielded a melting point of 128 to 130 °C.

`Nc1nc(C2CC2)ns1` displayed a melting point of 144 to 146 °C.

Regarding `Cc1cc(C)n2cnc(C(N)=O)c2n1`, the melting point fell in the range of 303 to 305 °C.

Consider `Cc1cnc2ccccc2c1Cl`, for which the melting point fell in the range of 57 to 59 °C.

For the molecule `Cc1ccc(NC(=O)C(C)Cl)c(F)c1` (centres undefined), the melting point fell in the range of 105 to 107 °C.

`Clc1ccc(CNC2=NCCS2)cc1` showed a melting point of 106 to 108 °C.

Molecule `O=C(CN=C=S)NC1CC1` showed a melting point of 169 to 171 °C.

For the molecule `N#Cc1cc(N)cnc1N`, the melting point lay within 129 to 131 °C.

`CC(Cl)C(=O)N1CC(=O)Nc2ccccc21` (centres undefined) returned a melting point of 139 to 141 °C.

`CC(N)C(=O)NO` (centres undefined) came in with a melting point of 159 to 161 °C.

The molecule `Cc1cc(C=O)cc(C)c1OCc1ccccc1Cl` came in with a melting point of 58 to 60 °C.

In the case of `O=C1CC(C(F)(F)F)N(C(=O)CCl)c2ccccc2N1` (centres undefined), the melting point was 159 to 161 °C.

Molecule `Cc1ccc(C2CNCCO2)c(C)c1` (centres undefined) came in with a melting point of 49 to 51 °C.

Turning to `CC(Cl)C(=O)Nc1ccc2c(c1)OC1(CCCCC1)O2` (centres undefined), the melting point was in the range of 98 to 100 °C.

`OCCOc1cc(Cl)ccc1Cl` yielded a melting point of 59 to 61 °C.

The molecule `CSc1ncc(C(N)=O)c(N)n1` showed a melting point of 250 to 252 °C.

Molecule `COc1cc(C=O)cc(OC)c1OC(F)F` showed a melting point of 115 to 117 °C.

The molecule `Cc1ccc(N2CC(C(=O)O)CC2=O)c(F)c1` (centres undefined) returned a melting point of 112 to 114 °C.

Molecule `O=C(O)COc1ccc(Cl)c2cccnc12` gave a melting point of 209 to 211 °C.

With `CCOC(=O)c1cnc2ccccc2c1Cl`, the melting point was in the range of 37 to 39 °C.

Consider `ON=Cc1nc2cc(Cl)ccc2o1`, for which the melting point was in the range of 206 to 208 °C.

`CCCc1cc(=O)[nH]c(CCC)n1` displayed a melting point of 69 to 71 °C.

Molecule `COc1ccccc1CC(C)=CC(=O)O` yielded a melting point of 96 to 98 °C.

`Nc1ccnn1Cc1cccnc1`: the melting point lay within 86 to 88 °C.

As for `Cc1cccc(-n2c(=O)[nH]c3cc(C(=O)O)ccc3c2=O)c1`, the melting point is 344 to 346 °C.

On to `Nc1nc(CC(=O)c2ccccc2)cs1`, for which the melting point lay within 157 to 159 °C.

`CCOC(=O)c1c(CC(C)C)csc1N` returned a melting point of 58 to 60 °C.

`C#CCNS(C)(=O)=O`: the melting point was in the range of 56 to 58 °C.

On to `Fc1ccc(CCNC2=NCCS2)cc1`, for which the melting point is 106 to 108 °C.

Regarding `CCCNC(=O)NC(=O)CCl`, the melting point was in the range of 119 to 121 °C.

Take `CC(c1ccccc1)n1c(S)nnc1-c1ccccc1` (centres undefined): the melting point fell in the range of 201 to 203 °C.

Consider `O=C(O)c1cnco1`, for which the melting point is 226 to 230 °C.

`COc1nc(C(=O)O)cc2ccccc12` had a melting point of 184 to 186 °C.

In turn, `COCCn1cc(C(=O)O)ccc1=O` yielded a melting point of 185 to 187 °C.

In turn, `NC(=O)CNCCC1CCCCC1` registered a melting point of 111 to 113 °C.

In turn, `Nc1ccncc1F` showed a melting point of 71 to 79 °C.

As to `CCOc1ccc(CO)cc1OCC`, the melting point was 37 to 39 °C.

`NCc1ccnc(N)c1`: the melting point fell in the range of 92 to 94 °C.

`Cc1nc(Cl)c2c3c(sc2n1)CCCCC3`: the melting point fell in the range of 43 to 47 °C.

For the molecule `CC1CC(N)C(=O)N1c1ccccc1` (centres undefined), the melting point was 77 to 79 °C.

With `O=C(CCl)N(Cc1cccs1)C1CCS(=O)(=O)C1` (centres undefined), the melting point was below 17 °C.

Regarding `COc1ccccc1-c1nnc(SCC(=O)O)n1N`, the melting point was 181 to 183 °C.

`Cc1nc(C)n(-c2ccc(C(=O)O)cc2)n1` yielded a melting point of 289 to 291 °C.

`CC(C)CCS(=O)(=O)CC(=O)O`: the melting point fell in the range of 61 to 63 °C.

Molecule `CC(C)(C)c1ccc(C(=O)Nc2ccccc2N)cc1` returned a melting point of 175 to 177 °C.

`COC(=O)c1cccc(-c2nc(C)cs2)c1` displayed a melting point of 52 to 54 °C.

With `CCOC(=O)c1sc(SC)nc1N`, the melting point was in the range of 80 to 82 °C.

`O=C(O)Cn1ccc2ccccc21` showed a melting point of 169 to 171 °C.

In the case of `CC(C)(C)OC(=O)NCC#Cc1ccc(OCc2ccccc2)cc1`, the melting point lay in the range of 104 to 106 °C.

`CCc1cccc(C)c1Nc1nnc(S)s1`: the melting point was in the range of 155 to 157 °C.

As for `Cc1cc(C(C)(C)C)cc(C)c1CC#N`, the melting point is 84 to 86 °C.

As for `CCCc1noc2nc(-c3cccnc3)cc(C(=O)O)c12`, the melting point lay within 259 to 261 °C.

Consider `Cc1cc(OCC(=O)O)ccc1Cl`, for which the melting point was in the range of 180 to 182 °C.

Regarding `CCN1C(=N)C(C)(C)N(C)C1=O`, the melting point was 88 to 90 °C.

`COc1ccc(C(=O)N2CCC(C(=O)O)CC2)c2ccccc12`: the melting point lay within 254 to 257 °C.

In the case of `CCOC(=O)c1sc(-c2ccc(OC)c(OC)c2)cc1N`, the melting point is 120 to 122 °C.

`O=C1CCSc2ccc(C(=O)O)cc2N1` returned a melting point of 262 to 264 °C.

The molecule `NC(=O)C1CCCCS1` (centres undefined) returned a melting point of 164 to 166 °C.

For `NCc1ccc(N2CCC(CO)CC2)cc1`, the melting point was 138 to 140 °C.

Consider `O=C(O)CN1C(=O)CCCc2ccccc21`, for which the melting point fell in the range of 141 to 143 °C.

`CNc1ccc(Br)cn1` had a melting point of 69 to 71 °C.

The molecule `O=c1c2sccc2ncn1CCO` showed a melting point of 179 to 181 °C.

Regarding `O=C(O)c1ccc(Br)c(S(=O)(=O)N2CCOCC2)c1`, the melting point lay within 167 to 169 °C.

`COc1cc(OC)c(C(C)=O)cc1Cl` had a melting point of 134 to 136 °C.

Molecule `Nc1ccc2oc(=O)ccc2c1` came in with a melting point of 159 to 161 °C.

Turning to `O=C(O)c1ccc(CNC(=O)c2cccs2)cc1`, the melting point lay in the range of 209 to 211 °C.

On to `Cn1c(NN)nnc1-c1ccccc1`, for which the melting point lay in the range of 147 to 149 °C.

`O=C(O)c1n[nH]c2ccc(I)cc12` returned a melting point of 285 to 287 °C.

Consider `NC1(C(=O)O)CCOc2ccccc21` (centres undefined), for which the melting point fell in the range of 239 to 241 °C.

In the case of `CC(C)NC(=O)C1CCCC(N)C1` (centres undefined), the melting point was 126 to 128 °C.

`O=C(O)C(c1ccccc1)N1CCS(=O)(=O)CC1` (centres undefined): the melting point is 165 to 167 °C.

In the case of `COc1ccc(C(=O)Nc2nc(C)cs2)cc1N`, the melting point lay within 164 to 166 °C.

Molecule `Sc1nnc(-c2ccc[nH]2)o1` came in with a melting point of 205 to 207 °C.

As for `CCOC(=O)CNC(=O)OCC(F)(F)F`, the melting point is 38 to 40 °C.

For `O=C(O)Cn1cc(C(F)(F)F)ccc1=O`, the melting point was 218 to 220 °C.

`N#CC1(CS(N)(=O)=O)CC1` registered a melting point of 109 to 111 °C.

Molecule `CCc1nc(C(=O)O)nn1-c1ccccc1Cl` showed a melting point of 164 to 166 °C.

`Cc1ccc(S(N)(=O)=O)cc1NC(=O)CCl` showed a melting point of 179 to 181 °C.

On to `CCc1ncncc1C(=O)O`, for which the melting point lay within 155 to 157 °C.

In turn, `Cn1cnc2cc(C#N)ccc21` came in with a melting point of 139 to 141 °C.

`CC(Nc1nc2ccccc2s1)C(=O)O` (centres undefined) had a melting point of 259 to 261 °C.

The molecule `O=C1c2ccccc2C(=O)N1CCCS(=O)(=O)Cl` came in with a melting point of 59 to 61 °C.

The molecule `O=c1c(-c2ccccc2)coc2cc(O)ccc12` showed a melting point of 201 to 203 °C.

As to `Cc1nc(NC(=O)OC(C)(C)C)sc1C(N)=O`, the melting point lay within 279 to 281 °C.

Molecule `CS(=O)(=O)Nc1ccc(O)c(C(=O)O)c1` displayed a melting point of 228 to 230 °C.

`NS(=O)(=O)c1ccc(OCC(=O)O)c(F)c1` yielded a melting point of 177 to 179 °C.

On to `C=CC(=O)NC(=O)NC`, for which the melting point fell in the range of 174 to 176 °C.

`O=C(O)CCNC(=O)c1ccc(Br)cc1` showed a melting point of 142 to 144 °C.

`COCCOc1ccc(C(C)=O)cc1OC` had a melting point of 85 to 87 °C.

With `Nc1sc2c(c1C(=O)c1ccc(Cl)cc1)CCCC2`, the melting point is 139 to 141 °C.

With `N#Cc1ccc(Cl)c(N)c1`, the melting point is 87 to 91 °C.

In the case of `CN(C)CCCNC(=O)c1cccnc1Cl`, the melting point was in the range of 97 to 101 °C.

For the molecule `CN(C)C(=O)Sc1ccc2c(c1)CCCC2=O`, the melting point is 99 to 101 °C.

`NC(=Nc1ccccc1)N1CCCCC1` gave a melting point of 61 to 63 °C.

In turn, `CN(C)c1ccc(C(=O)O)c(F)c1` yielded a melting point of 199 to 201 °C.

`Cc1ccc(N)c(OCc2ccccc2)c1` yielded a melting point of 68 to 70 °C.

In turn, `O=C(O)CN1CCCNC1=O` had a melting point of 248 to 250 °C.

The molecule `NCC(O)c1ccc2ccccc2c1` (centres undefined) came in with a melting point of 115 to 117 °C.

The molecule `NS(=O)(=O)c1ccc2c(c1)OCO2` returned a melting point of 155 to 157 °C.

`Cc1nn(-c2ccccc2)c(C)c1SCC(=O)O` showed a melting point of 148 to 150 °C.

`O=C(O)c1ccc(S(=O)(=O)C(F)F)cc1`: the melting point is 232 to 234 °C.

In turn, `O=C1CCC(=O)N1CC1CO1` (centres undefined) gave a melting point of 61 to 63 °C.

`COC(=O)CNc1ncc(C)cc1[N+](=O)[O-]`: the melting point lay in the range of 107 to 109 °C.

Regarding `CNCCC1CCN(C2CCN(C)CC2)CC1`, the melting point lay within 48 to 50 °C.

As for `Sc1nc(-c2cccnc2)no1`, the melting point was in the range of 179 to 181 °C.

`O=C(O)c1ccccc1SCc1cccs1` came in with a melting point of 178 to 180 °C.

Turning to `COc1cc(C(=O)O)sc1S(N)(=O)=O`, the melting point was in the range of 254 to 256 °C.

`CC1Sc2ccc(C(=O)O)cc2NC1=O` (centres undefined) gave a melting point of 230 to 232 °C.

In the case of `CCS(=O)(=O)c1ccccc1N1CCC(N)CC1`, the melting point lay within 119 to 121 °C.

With `Cc1cc2c(=O)[nH]cnc2s1`, the melting point was in the range of 258 to 260 °C.

Regarding `NS(=O)(=O)c1ccc2c(c1)NCC2`, the melting point was 164 to 166 °C.

As to `O=C(O)c1ccccc1NS(=O)(=O)c1cccc(C(F)(F)F)c1`, the melting point was 157 to 159 °C.

On to `Cc1nc(COc2ccc(C(=O)O)cc2)cs1`, for which the melting point was in the range of 196 to 198 °C.

On to `CC(=O)N1CC(C(=O)O)C1`, for which the melting point lay within 149 to 151 °C.

In the case of `COC(=O)C(=O)CC(=O)c1ccc(Cl)s1`, the melting point was in the range of 103 to 105 °C.

For the molecule `CC(C)OC(=O)c1cccc(-c2nn[nH]n2)c1`, the melting point was 155 to 159 °C.

`Cc1cccc(NC(=O)NCC(=O)O)c1` had a melting point of 182 to 184 °C.

Consider `NS(=O)(=O)c1ccc2c(c1)CCC(=O)N2`, for which the melting point lay in the range of 263 to 265 °C.

As to `CCOC=C1C(=O)N(c2cccc(C(F)(F)F)c2)C(=O)c2ccccc21`, the melting point was 194 to 196 °C.

The molecule `O=C(O)c1ccc(NC(=O)c2ccc(Br)cc2)cc1` displayed a melting point of 327 to 329 °C.

For `NC(=S)NC1CCOc2ccccc21` (centres undefined), the melting point fell in the range of 178 to 180 °C.

With `CCOC(=O)c1nc(C)n[nH]1`, the melting point lay in the range of 184 to 186 °C.

Take `COc1ccc(C(N)=O)cc1F`: the melting point lay within 169 to 171 °C.

Regarding `O=C(CCCl)Nc1cc([N+](=O)[O-])ccc1F`, the melting point lay in the range of 84 to 86 °C.

The record behind these values is a melting point compilation (Tetko et al.).
